Assay type in all cases: biochemical
The target of test [1] is T1, BTK-WT (Homo sapiens, UniProt Q06187).
T1 construct: purified from insect cells as a full-length construct containing an N-terminal 6X-His tag; His6 (N); made in house; host or cells: insect cells (baculovirus Sf21 in Method B)
As to the kind of experiment: Btk in vitro inhibitory activity (one of Method A TR-FRET, Method B electrophoretic mobility shift, Method C radiometric filter binding). Particulars: D-compounds panel data; read-out: IC50 BTK-WT.

Test [2] addresses LCK (Homo sapiens, UniProt P06239). Put plainly: Inhibition of a panel of kinases, in vitro HotSpot kinase assay: LCK. The note with it: D-compounds panel data; 1 μM ATP; read-out: IC50 LCK.
The target in test [3] is T2, ITK (Homo sapiens, UniProt Q08881).
T2 sequence (Q08881 1-620): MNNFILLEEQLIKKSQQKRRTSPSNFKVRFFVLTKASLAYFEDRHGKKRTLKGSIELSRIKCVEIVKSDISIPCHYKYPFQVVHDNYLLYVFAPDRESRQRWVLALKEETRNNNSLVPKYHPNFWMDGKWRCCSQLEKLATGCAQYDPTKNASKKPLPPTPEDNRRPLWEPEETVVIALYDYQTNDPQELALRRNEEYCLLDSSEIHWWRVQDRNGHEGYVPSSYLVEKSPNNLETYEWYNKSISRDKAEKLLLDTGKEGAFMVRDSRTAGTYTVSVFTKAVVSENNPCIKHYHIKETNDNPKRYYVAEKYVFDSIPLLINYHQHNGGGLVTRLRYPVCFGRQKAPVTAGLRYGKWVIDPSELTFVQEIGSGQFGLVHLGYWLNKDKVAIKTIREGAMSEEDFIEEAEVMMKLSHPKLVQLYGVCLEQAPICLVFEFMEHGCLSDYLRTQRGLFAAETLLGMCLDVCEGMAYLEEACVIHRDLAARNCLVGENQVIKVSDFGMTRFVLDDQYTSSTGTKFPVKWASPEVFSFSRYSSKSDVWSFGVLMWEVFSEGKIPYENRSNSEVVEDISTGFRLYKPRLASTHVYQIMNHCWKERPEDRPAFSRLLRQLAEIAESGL
As to the kind of experiment: Inhibition of a panel of kinases, in vitro HotSpot kinase assay: ITK. Particulars: D-compounds panel data; 1 μM ATP. As for the experimental part:
(§1) The degree of inhibition of a panel of kinases is determined using the in vitro HotSpot kinase assay (purified enzymes, ^33P-ATP, an appropriate substrate and 1 μM ATP).

Test [4] deals with SRC (Homo sapiens, UniProt P12931). Put plainly: Inhibition of a panel of kinases, in vitro HotSpot kinase assay: SRC. Particulars: D-compounds panel data; 1 μM ATP. The method, then:
as §1

Test [5] addresses T3, TEC (Homo sapiens, UniProt P42680).
T3 sequence (P42680 1-631): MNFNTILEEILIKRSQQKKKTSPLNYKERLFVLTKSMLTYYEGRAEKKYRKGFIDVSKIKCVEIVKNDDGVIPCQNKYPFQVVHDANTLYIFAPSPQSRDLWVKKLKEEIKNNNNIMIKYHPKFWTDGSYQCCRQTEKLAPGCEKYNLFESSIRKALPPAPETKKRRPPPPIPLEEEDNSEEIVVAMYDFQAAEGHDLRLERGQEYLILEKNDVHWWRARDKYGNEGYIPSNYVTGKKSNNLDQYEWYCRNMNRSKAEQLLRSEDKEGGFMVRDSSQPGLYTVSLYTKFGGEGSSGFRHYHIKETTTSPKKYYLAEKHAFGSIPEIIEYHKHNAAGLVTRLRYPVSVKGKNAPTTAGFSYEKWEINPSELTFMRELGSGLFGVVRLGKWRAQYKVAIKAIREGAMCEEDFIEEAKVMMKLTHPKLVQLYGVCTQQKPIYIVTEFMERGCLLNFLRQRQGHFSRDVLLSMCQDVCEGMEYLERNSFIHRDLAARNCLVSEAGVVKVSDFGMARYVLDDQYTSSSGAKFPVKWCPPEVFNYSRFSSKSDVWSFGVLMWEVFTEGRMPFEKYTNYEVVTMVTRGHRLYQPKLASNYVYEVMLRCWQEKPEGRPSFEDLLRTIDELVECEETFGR
As to the kind of experiment: Inhibition of a panel of kinases, in vitro HotSpot kinase assay: TEC. The note with it: D-compounds panel data; 1 μM ATP. The method, then:
as §1

SRC, sequence (P12931 whole entry): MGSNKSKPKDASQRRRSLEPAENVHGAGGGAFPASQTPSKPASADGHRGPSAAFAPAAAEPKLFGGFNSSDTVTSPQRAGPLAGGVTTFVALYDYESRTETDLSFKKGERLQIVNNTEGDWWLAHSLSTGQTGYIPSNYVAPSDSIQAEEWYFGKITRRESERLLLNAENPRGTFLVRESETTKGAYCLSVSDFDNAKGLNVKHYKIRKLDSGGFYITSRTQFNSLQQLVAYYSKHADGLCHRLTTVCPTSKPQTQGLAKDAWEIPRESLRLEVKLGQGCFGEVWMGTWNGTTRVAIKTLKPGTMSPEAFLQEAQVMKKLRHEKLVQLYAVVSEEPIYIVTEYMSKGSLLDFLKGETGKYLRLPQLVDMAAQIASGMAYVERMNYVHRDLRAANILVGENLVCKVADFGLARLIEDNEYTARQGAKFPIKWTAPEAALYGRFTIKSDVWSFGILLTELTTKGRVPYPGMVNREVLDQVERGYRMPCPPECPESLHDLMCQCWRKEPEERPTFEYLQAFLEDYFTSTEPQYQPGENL
T1 sequence (Q06187 whole entry): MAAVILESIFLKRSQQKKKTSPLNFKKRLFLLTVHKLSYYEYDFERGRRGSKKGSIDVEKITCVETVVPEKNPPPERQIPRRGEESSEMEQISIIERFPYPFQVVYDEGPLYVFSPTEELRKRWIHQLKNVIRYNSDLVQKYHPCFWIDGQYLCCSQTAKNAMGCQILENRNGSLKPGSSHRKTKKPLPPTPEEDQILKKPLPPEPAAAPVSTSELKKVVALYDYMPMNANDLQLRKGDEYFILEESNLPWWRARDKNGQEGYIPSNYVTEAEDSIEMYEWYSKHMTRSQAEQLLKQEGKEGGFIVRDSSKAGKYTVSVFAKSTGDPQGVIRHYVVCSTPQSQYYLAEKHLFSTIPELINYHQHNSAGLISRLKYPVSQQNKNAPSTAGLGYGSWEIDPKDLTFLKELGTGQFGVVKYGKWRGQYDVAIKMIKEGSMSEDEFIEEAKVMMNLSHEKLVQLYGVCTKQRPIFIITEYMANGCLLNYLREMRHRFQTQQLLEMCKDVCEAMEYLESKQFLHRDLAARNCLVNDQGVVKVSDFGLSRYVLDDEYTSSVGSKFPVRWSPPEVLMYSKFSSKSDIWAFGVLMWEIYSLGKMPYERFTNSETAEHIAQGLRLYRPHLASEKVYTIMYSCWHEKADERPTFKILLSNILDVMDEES
LCK, sequence (P06239 whole entry): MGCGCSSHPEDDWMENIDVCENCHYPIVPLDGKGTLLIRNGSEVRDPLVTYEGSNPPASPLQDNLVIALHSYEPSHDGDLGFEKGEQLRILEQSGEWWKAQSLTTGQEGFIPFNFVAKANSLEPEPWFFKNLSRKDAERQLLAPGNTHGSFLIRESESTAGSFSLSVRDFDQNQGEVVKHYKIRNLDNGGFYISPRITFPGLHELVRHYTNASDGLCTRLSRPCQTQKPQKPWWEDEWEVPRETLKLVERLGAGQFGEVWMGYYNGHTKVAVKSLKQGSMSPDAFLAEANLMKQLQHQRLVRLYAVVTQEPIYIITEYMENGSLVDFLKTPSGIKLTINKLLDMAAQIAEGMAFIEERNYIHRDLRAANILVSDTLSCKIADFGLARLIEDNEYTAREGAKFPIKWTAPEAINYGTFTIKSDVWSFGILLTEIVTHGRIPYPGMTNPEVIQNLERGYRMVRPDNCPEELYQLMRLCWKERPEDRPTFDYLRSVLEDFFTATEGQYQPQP

For `C[C@@H]1[C@H](NC(=O)c2ccc(C3CC3)cc2)CCCN1c1cnc(C(N)=O)c(Nc2cn(C)nc2C(F)(F)F)n1` [Example D-278, 5-[(2R,3R)-3-(4-cyclopropylbenzamido)-2-methylpiperidin-1-yl]-3-{[1-methyl-3-(trifluoromethyl)-1H-pyrazol-4-yl]amino}pyrazine-2-carboxamide], the IC50 in test [1], in test [2], in test [3], in test [4] and in test [5] was > 10 µM each time.

In the case of `C[C@@H]1[C@H](NC(=O)c2ccc3[nH]cnc3c2)CCCN1c1cnc(C(N)=O)c(Nc2cnn(C)c2)n1` [Example D-262, N-[(2R,3R)-1-{5-carbamoyl-6-[(1-methyl-1H-pyrazol-4-yl)amino]pyrazin-2-yl}-2-methylpiperidin-3-yl]-1H-1,3-benzodiazole-5-carboxamide], the IC50 in test [1] is ≤ 0.01 µM; in test [2], 0.01 to 0.1 µM; in test [3], 0.1 to 1 µM; in test [4], 0.01 to 0.1 µM; in test [5], ≤ 0.01 µM.

As to `C[C@@H]1[C@H](NC(=O)c2ccc(C3CC3)nc2)CCCN1c1cnc(C(N)=O)c(Nc2ccc(OC3CCOCC3)cc2)n1` [Example D-309, 5-[(2R,3R)-3-(6-cyclopropylpyridine-3-amido)-2-methylpiperidin-1-yl]-3-{[4-(oxan-4-yloxy)phenyl]amino}pyrazine-2-carboxamide], the IC50 in test [1] was ≤ 0.01 µM; in test [2], 0.1 to 1 µM; in test [3], 0.1 to 1 µM; in test [4] it was 0.01 to 0.1 µM; in test [5], ≤ 0.01 µM.

With `C[C@@H]1[C@H](NC(=O)c2ccc(C(C)(C)O)cc2F)CCCN1c1cnc(C(N)=O)c(Nc2cnn(C)c2)n1` [Example D-302, 5-[(2R,3R)-3-[2-fluoro-4-(2-hydroxypropan-2-yl)benzamido]-2-methylpiperidin-1-yl]-3-[(1-methyl-1H-pyrazol-4-yl)amino]pyrazine-2-carboxamide], the IC50 was ≤ 0.01 µM in test [1]; 0.01 to 0.1 µM in test [2]; 0.01 to 0.1 µM in test [3]; 0.01 to 0.1 µM in test [4]; ≤ 0.01 µM in test [5].

Regarding `C[C@@H]1[C@H](NC(=O)c2ccc(C3CC3)cc2)CCCN1c1cnc(C(N)=O)c(Nc2ccc3c(c2)OC(F)(F)O3)n1` [Example D-315, 5-[(2R,3R)-3-(4-cyclopropylbenzamido)-2-methylpiperidin-1-yl]-3-[(2,2-difluoro-2H-1,3-benzodioxol-5-yl)amino]pyrazine-2-carboxamide], the IC50 in test [1] was 1 to 10 µM; in test [2] it was > 10 µM; in test [3] it was > 10 µM; in test [4] it was > 10 µM; in test [5], 1 to 10 µM.

Consider `C[C@@H]1[C@H](NC(=O)c2ccc(C(N)=O)cc2)CCCN1c1cnc(C(N)=O)c(Nc2cnn(C)c2)n1` [Example D-268, 1-N-[(2R,3R)-1-{5-carbamoyl-6-[(1-methyl-1H-pyrazol-4-yl)amino]pyrazin-2-yl}-2-methylpiperidin-3-yl]benzene-1,4-dicarboxamide], for which the IC50 in test [1] is ≤ 0.01 µM; in test [2] it was 0.01 to 0.1 µM; in test [3], 0.1 to 1 µM; in test [4], 0.01 to 0.1 µM; in test [5], ≤ 0.01 µM.

Turning to `COCCn1cc(Nc2nc(N3CCC[C@@H](NC(=O)c4ccc(C5CC5)cc4)[C@H]3C)cnc2C(N)=O)cn1` [Example D-270, 5-[(2R,3R)-3-(4-cyclopropylbenzamido)-2-methylpiperidin-1-yl]-3-{[1-(2-methoxyethyl)-1H-pyrazol-4-yl]amino}pyrazine-2-carboxamide], the IC50 in test [1] is ≤ 0.01 µM; in test [2], 0.1 to 1 µM; in test [3], 0.1 to 1 µM; in test [4], 0.1 to 1 µM; in test [5] it was 0.1 to 1 µM.

As to `C[C@@H]1[C@H](NC(=O)c2ccc(C3CC3)cc2)CCCN1c1cnc(C(N)=O)c(Nc2cnn(C)c2C(F)(F)F)n1` [Example D-276, 5-[(2R,3R)-3-(4-cyclopropylbenzamido)-2-methylpiperidin-1-yl]-3-{[1-methyl-5-(trifluoromethyl)-1H-pyrazol-4-yl]amino}pyrazine-2-carboxamide], the IC50 in test [1] is 1 to 10 µM; in test [2] it was > 10 µM; in test [3], > 10 µM; in test [4], > 10 µM; in test [5], > 10 µM.

Consider `C[C@@H]1[C@H](NC(=O)c2ccc3nn(C)cc3c2)CCCN1c1cnc(C(N)=O)c(Nc2cnn(C)c2)n1` [Example D-267, N-[(2R,3R)-1-{5-carbamoyl-6-[(1-methyl-1H-pyrazol-4-yl)amino]pyrazin-2-yl}-2-methylpiperidin-3-yl]-2-methyl-2H-indazole-5-carboxamide], for which the IC50 in test [1] was ≤ 0.01 µM; in test [2], 0.01 to 0.1 µM; in test [3], 0.1 to 1 µM; in test [4] it was 0.01 to 0.1 µM; in test [5] it was ≤ 0.01 µM.

With `C[C@@H]1[C@H](NC(=O)c2ccc(C(C)(C)C)cc2)CCCN1c1cnc(C(N)=O)c(Nc2cnn(C)c2)n1` [Example D-22, 5-[(2R,3R)-3-(4-tert-butylbenzamido)-2-methylpiperidin-1-yl]-3-[(1-methyl-1H-pyrazol-4-yl)amino]pyrazine-2-carboxamide], the IC50 is ≤ 0.01 µM in test [1]; 1 to 10 µM in test [2]; 1 to 10 µM in test [3]; 0.1 to 1 µM in test [4]; 0.01 to 0.1 µM in test [5].

On to `C[C@@H]1[C@H](NC(=O)c2ccc(C(C)(O)CO)cc2)CCCN1c1cnc(C(N)=O)c(Nc2cnn(C)c2)n1` (single isomer, unassigned) [Example D-265], for which the IC50 is ≤ 0.01 µM in test [1]; 0.1 to 1 µM in test [2]; 0.1 to 1 µM in test [3]; 0.01 to 0.1 µM in test [4]; ≤ 0.01 µM in test [5].

As for `CCN(C)C(=O)N[C@@H]1CCCN(c2cnc(C(N)=O)c(Nc3cnn(C)c3)n2)[C@@H]1C` [Example D-304, 5-[(2R,3R)-3-{[ethyl(methyl)carbamoyl]amino}-2-methylpiperidin-1-yl]-3-[(1-methyl-1H-pyrazol-4-yl)amino]pyrazine-2-carboxamide], the IC50 in test [1] was ≤ 0.01 µM; in test [2], 0.1 to 1 µM; in test [3], 1 to 10 µM; in test [4], 0.1 to 1 µM; in test [5] it was 0.01 to 0.1 µM.

Regarding `C[C@@H]1[C@H](NC(=O)c2ccc(C(C)(C)O)cc2F)CCCN1c1nnc(C(N)=O)c(Nc2cnn(C)c2)n1` [Example D-308, 3-[(2R,3R)-3-[2-fluoro-4-(2-hydroxypropan-2-yl)benzamido]-2-methylpiperidin-1-yl]-5-[(1-methyl-1H-pyrazol-4-yl)amino]-1,2,4-triazine-6-carboxamide], the IC50 was ≤ 0.01 µM in test [1]; 0.01 to 0.1 µM in test [2]; 0.01 to 0.1 µM in test [3]; 0.01 to 0.1 µM in test [4]; ≤ 0.01 µM in test [5].

Regarding `C[C@@H]1[C@H](NC(=O)c2cc3c(n2C)CC(C)(C)C3)CCCN1c1cnc(C(N)=O)c(Nc2cnn(C)c2)n1` [Example D-19, 3-[(1-methyl-1H-pyrazol-4-yl)amino]-5-[(2R,3R)-2-methyl-3-{1,5,5-trimethyl-1H,4H,5H,6H-cyclopenta[b]pyrrole-2-amido}piperidin-1-yl]pyrazine-2-carboxamide], the IC50 in test [1] is ≤ 0.01 µM; in test [2], 0.1 to 1 µM; in test [3], 0.1 to 1 µM; in test [4], 0.1 to 1 µM; in test [5], 0.01 to 0.1 µM.

Broadly, the IC50 is the concentration needed to halve the response being measured.

The values above are taken from US20210070748A1, “INHIBITORS OF BRUTONS TYROSINE KINASE” (Pharmacyclics LLC, priority 2015, published 2021).
